Data set [1] has as its system NSC-34D motor neuron cell line. The data set can be described thus: Excitotoxic cell death of motor neuron cell line (MTT reduction). In kind it is cell-based. Conditions: exposed for 72 hours. The procedure:
FIG. 3 is a plot showing the effect of (S)-5-fluorowillardiine (“(S)-5-FW”) on survival (MTT reduction) of NSC-34D motor neuron cell line. These cells were cultured at 1×10^4 cells/well for 48 hours in DMEM/F-12 with 1% (v/v) FCS and then exposed to various concentrations of (S)-5-FW for 72 hours. MTT solution (0.5 mg/ml) was added to cultures for 2 hours, cells were solubilised and MTT reduction quantified as a percentage of […]. Statistically significant differences from control (zero (S)-5-FW) were defined using one-way ANOVA (*P<0.05, ***P<0.001).
(§1) We developed two cell culture systems that can be used to screen drugs that prevent cell death induced by oxidant stress (FIG. 3, Model A) and excitotoxicity (FIG. 4, Model B). In model A, we utilize cultured fibroblasts that are exposed to paraquat that induces significant death at 10 μM (see FIG. 3). In model B we utilize the NSC-34 motor neuron cell line that can be induced to degenerate via the glutamate excitotixic pathway using the specific agonist fluorowillardine or FW (see FIG. 4).
(Tetrazolium assays rely on reduction of a dye to a coloured formazan, in cell work by metabolically active cells.)

The nature of data set [2]: In vitro antioxidant assay: oxidation of linoleic acid to conjugated diene hydroperoxide, free radical initiator AAPH, absorbance at 234 nm. In kind it is biochemical. The text has this: Lipid oxidation can usually be prevented by the addition free radical scavengers (FRS), more commonly known as antioxidants. Their role is to turn reactive and harmful molecules such as hydroxy, nitroxy and superoxide radicals into innocuous molecules that can be passed or converted by biological processes. One of the main pathways that lead to apoptosis in cells is oxidative stress. This event is a product of the action of these harmful radicals on the cell walls and membranes, leading to their breakdown. In terms of the antioxidant evaluation (Scheme 1), […] was utilised as a free radical initiator […], and the efficiency was calculated based on the formation of a conjugated diene hydroperoxide generated through the oxidation of linoleic acid in the presence and absence of a free radical scavenger. The conjugated diene hydroperoxide mimics the products of cellular oxidative stress imposed on the cell wall. The antioxidant can act at any stage of the reaction to stop or slow down the formation of the conjugated diene by reacting with the appropriate radicals (Scheme 1).
A convenient test to determine the efficiency of antioxidants in aqueous systems was setup using 2,2′-azobis(2-amidinopropane).2HCl ([…]) as a free radical initiator (Scheme 1). The production of conjugated diene hydroperoxide (LOOH) generated through the oxidation of linoleic acid in an aqueous system at 37° C. is monitored at 234 nm for 15 minutes using a Cary 100 UV-Vis spectrophotometer.
The efficiency is determined according to a standard, that is the generation of free radicals in the absence of an antioxidant. Efficiency is then calculated using the following equation: Efficiency (%)=1−[K2/K1]×100 Where: • K1=rate of oxidation of standard (no antioxidant)=[difference in absorbance]/[time (sec)] • K2=rate of oxidation with antioxidant=[difference in absorbance]/[time (sec)]
Prior to testing the efficiency of the compounds of the present invention, a number of well known antioxidants including vitamin E and ascorbic acid were tested. Each of the tests for vitamin E and ascorbic acid gave similar results to those presented in the literature. A number of other variables were tested including the amounts of antioxidant, substrate (linoleic acid) and initiator (AAPH). The optimal volumes are shown below: • 2.78 ml 0.05M phosphate buffer pH 7.4 • 30 ul of linoleic acid dispersion stock • 10 ul of 0.01M antioxidant stock
150 ul of 40 mM […] stock
When testing the efficiency of compounds of the present invention in the presence and absence of Ca^2+, HEPES buffered saline was used instead of the standard phosphate buffer and CaCl2 was used as a source of calcium ions.

The test system of data set [3] is neonatal mouse fibroblasts. Put plainly: Oxidant stress-induced cell death of fibroblasts (LDH release). In kind it is cell-based. On the procedure:
FIG. 2 is a plot of the oxidant stress-induced cell death of neonatal mouse fibroblasts exposed to paraquat. Cells (5×10^3 per well) were treated overnight with freshly prepared paraquat or peroxynitrite. Culture medium from wells was assayed for lactate dehydrogenase (LDH) release as a marker of cytotoxicity. […] Values represent means±SEMs of triplicate wells, *P<0.05 difference from untreated cells. The x-axis represents concentration of Paraquat and Peroxynitrite in μM.
as §1

Where [4] appears, read: 0.05M phosphate buffer pH 7.4, 37° C., 15 minutes, antioxidant stock 0.01 M, final concentration 33.3 μM.
[5] abbreviates: HBS with calcium (67%), CaCl2 as calcium source, solvent methanol or DMSO (33%).
[6] abbreviates: HBS without calcium (67%), solvent methanol or DMSO (33%).

Like-named read-outs stand apart in the source and are kept apart here.

From patent US20050288359A1, “Agents and methods for the treatment of disorders associated with oxidative stress” (Monash University, priority 2002, published 2005) come the findings set out here.

Turning to `N[C@@H](Cn1cc(F)c(=O)[nH]c1=O)C(=O)O` [(S)-5-FW, (S)-5-fluorowillardiine], the “Concentration of maximal cell death effect” value in data set [1] came out at 1000 µM. Moreover, the “Effect on survival (MTT reduction)” value in data set [1] (various concentrations) was “significant cell death in concentration dependent manner”. In turn, `O=C1O[C@H]([C@@H](O)CO)C(O)=C1O` [Ascorbic Acid] came in with an Efficiency in data set [2] (setting [4]) of 74%. Take `O=C(O)CN(CC(=O)O)c1ccccc1OCCOc1ccccc1N(CC(=O)O)CC(=O)O` [compound (4), bis(o-aminophenoxy)ethane-N,N,N′,N′-tetraacetic acid]: the Efficiency in data set [2] (setting [4]) amounted to 83%; in data set [2] (setting [5]), 93%; in data set [2] (setting [6]), 93%. In the case of `O=NOO` [peroxynitrite], the “Cell death (LDH release as marker of cytotoxicity)” value in data set [3] is recorded as “not peroxynitrite induced significant cell death”. For “Bis[2-(bis-ethoxycarbonylmethyl)aminophenoxy]ethane [compound (3)]”, in data set [2] (setting [4]), the Efficiency was 20%. Regarding Vitamin E, the Efficiency in data set [2] (setting [4]) stood at 93%; in data set [2] (setting [5]), 94%; in data set [2] (setting [6]), 90%. On to `C[n+]1ccc(-c2cc[n+](C)cc2)cc1` [paraquat], for which the “Cell death (LDH release as marker of cytotoxicity)” value in data set [3] (5×10^3 cells per well, treated overnight, high doses) is listed as “induced significant cell death”. In addition, the “Concentration that induces significant death of cultured fibroblasts” value in data set [3] (model A, oxidant stress) is 10 µM. Take `COc1ccccc1N(CC(=O)O)CC(=O)O` [(6), N,N-bis(acetic acid)o-anisidine]: the Efficiency is 43% in data set [2] (setting [4]), 35% in data set [2] (setting [5]) and 46% in data set [2] (setting [6]). In turn, `CCOC(=O)CN(CC(=O)OCC)c1ccccc1OC` [(5), N,N-bis(ethoxycarbonylmethyl)o-anisidine] returned an Efficiency in data set [2] (setting [4]) of 47%.
